Measurements from PubChem BioAssay (NCI).
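GI50 marks 50% less growth. TGI: total growth inhibition.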

Legend:
Test in all cases: NCI-60 cell line screen, 384-well format
786-0 renal = test system: 786-0 renal
A498 renal = test system: A498 renal
A549 NSCLC = test system: A549 NSCLC
ACHN renal = test system: ACHN renal
CAKI-1 renal = test system: CAKI-1 renal
CCRF-CEM leukemia = test system: CCRF-CEM leukemia
COLO 205 colon = test system: COLO 205 colon
DU-145 prostate = test system: DU-145 prostate
EKVX NSCLC = test system: EKVX NSCLC
HCT-116 colon = test system: HCT-116 colon
HOP-62 NSCLC = test system: HOP-62 NSCLC
HOP-92 NSCLC = test system: HOP-92 NSCLC
HS 578T breast = test system: HS 578T breast
IGROV1 ovarian = test system: IGROV1 ovarian
K-562 leukemia = test system: K-562 leukemia
KM12 colon = test system: KM12 colon
LOX IMVI melanoma = test system: LOX IMVI melanoma
M14 melanoma = test system: M14 melanoma
MALME-3M melanoma = test system: MALME-3M melanoma
MCF7 breast = test system: MCF7 breast
MDA-MB-435 melanoma = test system: MDA-MB-435 melanoma
MDA-MB-468 breast = test system: MDA-MB-468 breast
MOLT-4 leukemia = test system: MOLT-4 leukemia
NCI-H226 lung = test system: NCI-H226 lung
NCI-H460 NSCLC = test system: NCI-H460 NSCLC
NCI-H522 lung = test system: NCI-H522 lung
NCI/ADR-RES ovarian = test system: NCI/ADR-RES ovarian
OVCAR-3 ovarian = test system: OVCAR-3 ovarian
OVCAR-5 ovarian = test system: OVCAR-5 ovarian
OVCAR-8 ovarian = test system: OVCAR-8 ovarian
PC-3 prostate = test system: PC-3 prostate
RPMI-8226 leukemia = test system: RPMI-8226 leukemia
SF-268 CNS = test system: SF-268 CNS
SF-295 CNS = test system: SF-295 CNS
SK-MEL-2 melanoma = test system: SK-MEL-2 melanoma
SK-MEL-28 melanoma = test system: SK-MEL-28 melanoma
SK-MEL-5 melanoma = test system: SK-MEL-5 melanoma
SK-OV-3 ovarian = test system: SK-OV-3 ovarian
SN12C renal = test system: SN12C renal
SNB-75 CNS = test system: SNB-75 CNS
SR leukemia = test system: SR leukemia
SW-620 colon = test system: SW-620 colon
T-47D breast = test system: T-47D breast
TK-10 renal = test system: TK-10 renal
UACC-257 melanoma = test system: UACC-257 melanoma
UACC-62 melanoma = test system: UACC-62 melanoma
UO-31 renal = test system: UO-31 renal

SMILES: CC(=O)OC[C@H]1O[C@@H](n2ccc(=O)[nH]c2=O)[C@H](OC(C)=O)[C@@H]1OC(C)=O
- GI50 ([…]-0 renal): > 100 µM
- TGI (786-0 renal): > 100 µM
- GI50 (A498 renal): > 100 µM
- TGI (A498 renal): > 100 µM
- GI50 (A549 NSCLC): > 100 µM
- TGI (A549 NSCLC): > 100 µM
- GI50 (ACHN renal): > 100 µM
- TGI (ACHN renal): > 100 µM
- GI50 (CAKI-1 renal): > 100 µM
- TGI (CAKI-1 renal): > 100 µM
- GI50 (CCRF-CEM leukemia): > 100 µM
- TGI (CCRF-CEM leukemia): > 100 µM
- GI50 (COLO 205 colon): > 100 µM
- TGI (COLO 205 colon): > 100 µM
- GI50 (DU-145 prostate): > 100 µM
- TGI (DU-145 prostate): > 100 µM
- GI50 (EKVX NSCLC): > 100 µM
- TGI (EKVX NSCLC): > 100 µM
- GI50 (HCT-116 colon): > 100 µM
- TGI (HCT-116 colon): > 100 µM
- GI50 (HOP-62 NSCLC): > 100 µM
- TGI (HOP-62 NSCLC): > 100 µM
- GI50 (HOP-92 NSCLC): > 100 µM
- TGI (HOP-92 NSCLC): > 100 µM
- GI50 (HS 578T breast): > 100 µM
- TGI (HS 578T breast): > 100 µM
- GI50 (IGROV1 ovarian): > 100 µM
- TGI (IGROV1 ovarian): > 100 µM
- GI50 (K-562 leukemia): > 100 µM
- TGI (K-562 leukemia): > 100 µM
- GI50 (KM12 colon): > 100 µM
- TGI (KM12 colon): > 100 µM
- GI50 (LOX IMVI melanoma): > 100 µM
- TGI (LOX IMVI melanoma): > 100 µM
- GI50 (M14 melanoma): > 100 µM
- TGI (M14 melanoma): > 100 µM
- GI50 (MALME-3M melanoma): > 100 µM
- TGI (MALME-3M melanoma): > 100 µM
- GI50 (MCF7 breast): > 100 µM
- TGI (MCF7 breast): > 100 µM
- GI50 (MDA-MB-435 melanoma): > 100 µM
- TGI (MDA-MB-435 melanoma): > 100 µM
- GI50 (MDA-MB-468 breast): > 100 µM
- TGI (MDA-MB-468 breast): > 100 µM
- GI50 (MOLT-4 leukemia): > 100 µM
- TGI (MOLT-4 leukemia): > 100 µM
- GI50 (NCI-H226 lung): > 100 µM
- TGI (NCI-H226 lung): > 100 µM
- GI50 (NCI-H460 NSCLC): > 100 µM
- TGI (NCI-H460 NSCLC): > 100 µM
- GI50 (NCI-H522 lung): > 100 µM
- TGI (NCI-H522 lung): > 100 µM
- GI50 (NCI/ADR-RES ovarian): > 100 µM
- TGI (NCI/ADR-RES ovarian): > 100 µM
- GI50 (OVCAR-3 ovarian): > 100 µM
- TGI (OVCAR-3 ovarian): > 100 µM
- GI50 (OVCAR-5 ovarian): > 100 µM
- TGI (OVCAR-5 ovarian): > 100 µM
- GI50 (OVCAR-8 ovarian): > 100 µM
- TGI (OVCAR-8 ovarian): > 100 µM
- GI50 (PC-3 prostate): > 100 µM
- TGI (PC-3 prostate): > 100 µM
- GI50 (RPMI-8226 leukemia): > 100 µM
- TGI (RPMI-8226 leukemia): > 100 µM
- GI50 (SF-268 CNS): > 100 µM
- TGI (SF-268 CNS): > 100 µM
- GI50 (SF-295 CNS): > 100 µM
- TGI (SF-295 CNS): > 100 µM
- GI50 (SK-MEL-2 melanoma): > 100 µM
- TGI (SK-MEL-2 melanoma): > 100 µM
- GI50 (SK-MEL-28 melanoma): > 100 µM
- TGI (SK-MEL-28 melanoma): > 100 µM
- GI50 (SK-MEL-5 melanoma): > 100 µM
- TGI (SK-MEL-5 melanoma): > 100 µM
- GI50 (SK-OV-3 ovarian): > 100 µM
- TGI (SK-OV-3 ovarian): > 100 µM
- GI50 (SN12C renal): > 100 µM
- TGI (SN12C renal): > 100 µM
- GI50 (SNB-75 CNS): > 100 µM
- TGI (SNB-75 CNS): > 100 µM
- GI50 (SR leukemia): > 100 µM
- TGI (SR leukemia): > 100 µM
- GI50 (SW-620 colon): > 100 µM
- TGI (SW-620 colon): > 100 µM
- GI50 (T-47D breast): > 100 µM
- TGI (T-47D breast): > 100 µM
- GI50 (TK-10 renal): > 100 µM
- TGI (TK-10 renal): > 100 µM
- GI50 (UACC-257 melanoma): > 100 µM
- TGI (UACC-257 melanoma): > 100 µM
- GI50 (UACC-62 melanoma): > 100 µM
- TGI (UACC-62 melanoma): > 100 µM
- GI50 (UO-31 renal): > 100 µM
- TGI (UO-31 renal): > 100 µM

SMILES: C#Cc1cccc(Nc2ncnc3cc(OCCOC)c(OCCOC)cc23)c1
- GI50 ([…]-0 renal): 6.46 µM
- TGI (786-0 renal): > 100 µM
- GI50 (A498 renal): 1.97 µM
- TGI (A498 renal): > 100 µM
- GI50 (A549 NSCLC): 3.72 µM
- TGI (A549 NSCLC): > 100 µM
- GI50 (ACHN renal): 0.329 µM
- TGI (ACHN renal): > 25.8 µM
- GI50 (CAKI-1 renal): 1.83 µM
- TGI (CAKI-1 renal): 8.89 µM
- GI50 (CCRF-CEM leukemia): 11.2 µM
- TGI (CCRF-CEM leukemia): > 100 µM
- GI50 (COLO 205 colon): > 100 µM
- TGI (COLO 205 colon): > 100 µM
- GI50 (DU-145 prostate): 1.98 µM
- TGI (DU-145 prostate): > 100 µM
- GI50 (EKVX NSCLC): 1.93 µM
- TGI (EKVX NSCLC): > 100 µM
- GI50 (HCT-116 colon): 11.6 µM
- TGI (HCT-116 colon): > 100 µM
- GI50 (HOP-62 NSCLC): 28.5 µM
- TGI (HOP-62 NSCLC): > 100 µM
- GI50 (HOP-92 NSCLC): 11.9 µM
- TGI (HOP-92 NSCLC): > 96.6 µM
- GI50 (HS 578T breast): 3.85 µM
- TGI (HS 578T breast): 45.8 µM
- GI50 (IGROV1 ovarian): 0.385 µM
- TGI (IGROV1 ovarian): 5.62 µM
- GI50 (K-562 leukemia): 7.57 µM
- TGI (K-562 leukemia): > 100 µM
- GI50 (KM12 colon): > 27.8 µM
- TGI (KM12 colon): > 100 µM
- GI50 (LOX IMVI melanoma): 7.97 µM
- TGI (LOX IMVI melanoma): > 100 µM
- GI50 (M14 melanoma): 6.72 µM
- TGI (M14 melanoma): > 100 µM
- GI50 (MALME-3M melanoma): 16.8 µM
- TGI (MALME-3M melanoma): > 100 µM
- GI50 (MCF7 breast): > 100 µM
- TGI (MCF7 breast): > 100 µM
- GI50 (MDA-MB-435 melanoma): > 100 µM
- TGI (MDA-MB-435 melanoma): > 100 µM
- GI50 (MDA-MB-468 breast): 0.183 µM
- TGI (MDA-MB-468 breast): 0.777 µM
- GI50 (MOLT-4 leukemia): 7.14 µM
- TGI (MOLT-4 leukemia): > 51.9 µM
- GI50 (NCI-H226 lung): 9.26 µM
- TGI (NCI-H226 lung): > 100 µM
- GI50 (NCI-H460 NSCLC): 9.81 µM
- TGI (NCI-H460 NSCLC): > 100 µM
- GI50 (NCI-H522 lung): 0.433 µM
- TGI (NCI-H522 lung): 3.47 µM
- GI50 (NCI/ADR-RES ovarian): 12.6 µM
- TGI (NCI/ADR-RES ovarian): > 100 µM
- GI50 (OVCAR-3 ovarian): 4.02 µM
- TGI (OVCAR-3 ovarian): > 100 µM
- GI50 (OVCAR-5 ovarian): 6.96 µM
- TGI (OVCAR-5 ovarian): > 100 µM
- GI50 (OVCAR-8 ovarian): 7.75 µM
- TGI (OVCAR-8 ovarian): > 100 µM
- GI50 (PC-3 prostate): 23 µM
- TGI (PC-3 prostate): > 100 µM
- GI50 (RPMI-8226 leukemia): 7.94 µM
- TGI (RPMI-8226 leukemia): > 88.4 µM
- GI50 (SF-268 CNS): 21.2 µM
- TGI (SF-268 CNS): > 72.3 µM
- GI50 (SF-295 CNS): > 51.9 µM
- TGI (SF-295 CNS): > 100 µM
- GI50 (SK-MEL-2 melanoma): 8.78 µM
- TGI (SK-MEL-2 melanoma): > 100 µM
- GI50 (SK-MEL-28 melanoma): > 85.1 µM
- TGI (SK-MEL-28 melanoma): > 100 µM
- GI50 (SK-MEL-5 melanoma): 1.94 µM
- TGI (SK-MEL-5 melanoma): > 26.3 µM
- GI50 (SK-OV-3 ovarian): 1.58 µM
- TGI (SK-OV-3 ovarian): 8.28 µM
- GI50 (SN12C renal): 3.79 µM
- TGI (SN12C renal): > 100 µM
- GI50 (SNB-75 CNS): 8 µM
- TGI (SNB-75 CNS): 50.5 µM
- GI50 (SR leukemia): 21.4 µM
- TGI (SR leukemia): > 67.5 µM
- GI50 (SW-620 colon): > 100 µM
- TGI (SW-620 colon): > 100 µM
- GI50 (T-47D breast): 6.56 µM
- TGI (T-47D breast): > 89 µM
- GI50 (TK-10 renal): 0.849 µM
- TGI (TK-10 renal): > 100 µM
- GI50 (UACC-257 melanoma): 96.9 µM
- TGI (UACC-257 melanoma): > 100 µM
- GI50 (UACC-62 melanoma): 6.74 µM
- TGI (UACC-62 melanoma): > 90.5 µM
- GI50 (UO-31 renal): 2.04 µM
- TGI (UO-31 renal): > 32.4 µM
